# Reference: patent publication USRE40387E1, “Pharmaceutical compositions, dosage forms and methods for oral administration of epothilones” (Bristol-Myers Squibb Company, priority 2001, dated 2008)
# Test: in vitro
# Settings: human, Caco-2
# Description: The Pc of some model compounds, for which the bioavailability in humans is known, was also determined in the same experiment.
row,Structure (SMILES),Papp
1,"O=C(O)c1ccccc1O [salicylic acid, reference compound]",> 20 ×10⁻⁶ cm/s
2,"CC(C)Cc1ccc(C(C)C(=O)O)cc1 (stereo not drawn) [ibuprofen, reference compound]",> 20 ×10⁻⁶ cm/s
3,"CC(=O)Nc1ccc(O)cc1 [acetaminophen, reference compound]",> 20 ×10⁻⁶ cm/s
